Earlier results as cited in article PMC4282593 (Cancer chemotherapy and pharmacology, 2014).

System: recurrent/refractory NBs
Settings: ref [23]

C[C@]12O[C@H](C[C@]1(O)CO)n1c3ccccc3c3c4c(c5c6ccccc6n2c5c31)CNC4=O [lestaurtinib]
patients with durable responses (8/16 patients treated at a biologically effective dose): 50% | side effects (Phase 1 clinical trial in NB patients): limited to mild, including reversible liver transaminase elevations | duration of durable responses, on average (patients treated at a biologically effective dose): more than 10 months
